Usually IC50 stands for the concentration that gives 50% inhibition.

This experiment deals with 2-acylglycerol O-acyltransferase 2 (Homo sapiens, UniProt Q3SYC2). Nature of the experiment: Inhibition of human MoGAT-2 expressed in human Caco2 cells assessed as inhibition of 2-O-Hexadecylglycerol […] pretreated for 30 mins by LC-MS analysis. It counts as cell-based, Caco-2.
Sequence of 2-acylglycerol O-acyltransferase 2 (Q3SYC2 whole entry): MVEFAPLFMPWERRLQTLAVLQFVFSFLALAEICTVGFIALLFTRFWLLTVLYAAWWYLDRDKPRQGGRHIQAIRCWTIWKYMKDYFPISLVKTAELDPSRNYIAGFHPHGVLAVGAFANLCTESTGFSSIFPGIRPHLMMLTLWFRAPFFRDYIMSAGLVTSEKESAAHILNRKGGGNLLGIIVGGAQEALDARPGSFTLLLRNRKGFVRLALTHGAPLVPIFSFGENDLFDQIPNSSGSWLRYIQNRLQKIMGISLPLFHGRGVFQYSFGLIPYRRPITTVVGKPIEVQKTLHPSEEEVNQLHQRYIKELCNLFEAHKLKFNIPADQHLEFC

With `C[C@@H](NS(C)(=O)=O)c1ccc(CNC[C@@H]2CO[C@@H](c3ccccc3)CO2)cc1`, the IC50 turned out to be 294 nM.

The record behind these values is ChEMBL document CHEMBL3352614, “MoGAT-2 Inhibitors May Provide Effective Treatment for Hypertriglyceridemia” (ACS Med Chem Lett, 2014).
